The text below walks through data of publication PMC6525171, “15-deoxy-Δ^12,14-Prostaglandin J2 inhibits human soluble epoxide hydrolase by a dual orthosteric and allosteric mechanism” (Communications Biology, 2019).

Holding throughout (assay type): biochemical
For assay [1], the target named is T1, human soluble epoxide hydrolase (hsEH CTD) (Homo sapiens, UniProt P34913, C423S/C522S).
T1 construct: gene EPHX2; C-terminal domain, T230-M555
T1 sequence (P34913 230-555 C423S/C522S): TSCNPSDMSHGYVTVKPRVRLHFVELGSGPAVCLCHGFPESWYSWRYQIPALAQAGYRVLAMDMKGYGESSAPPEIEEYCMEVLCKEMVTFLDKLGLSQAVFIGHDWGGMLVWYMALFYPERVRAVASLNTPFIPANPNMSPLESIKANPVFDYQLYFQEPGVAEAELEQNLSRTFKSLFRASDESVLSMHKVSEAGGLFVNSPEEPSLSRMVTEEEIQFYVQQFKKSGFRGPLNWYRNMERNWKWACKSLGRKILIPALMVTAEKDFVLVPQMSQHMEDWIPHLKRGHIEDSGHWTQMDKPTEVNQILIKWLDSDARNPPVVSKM
In words: PHOME spectrofluorimetric assay, Ki by Cheng-Prusoff.

The target of assay [2] is T2, human soluble epoxide hydrolase (hsEH CTD) (Homo sapiens, UniProt P34913).
T2 construct: gene EPHX2; C-terminal domain, T230-M555
T2 sequence (P34913 230-555): T1 sequence (P34913 230-555 C423S/C522S) with S194C, S293C
As to the kind of experiment: X-ray crystal structure ([…] Å, non-covalent complex), STD-NMR; ESI-MS and LC-MS/MS of covalent adducts; Ki from PHOME fluorescence assay.

Assay [3] concerns the target T3, human soluble epoxide hydrolase (hsEH CTD) (Homo sapiens, UniProt P34913, C522S).
T3 construct: gene EPHX2; C-terminal domain, T230-M555
T3 sequence (P34913 230-555 C522S): T1 sequence (P34913 230-555 C423S/C522S) with S194C
As to the kind of experiment: HPLC, UV and CD of purified covalent adduct; PHOME activity of adduct vs apoprotein.

The target in assay [4] is T4, human soluble epoxide hydrolase (hsEH CTD) (Homo sapiens, UniProt P34913, C423S).
T4 construct: gene EPHX2; C-terminal domain, T230-M555
T4 sequence (P34913 230-555 C423S): T1 sequence (P34913 230-555 C423S/C522S) with S293C
The description is as above.

SMILES strings stand for the structures. Where a chain is given by its changes, count along the chain named. pKi: −log10 of the molar value.

Turning to `CCCCC/C=C/C=C1/C(=O)C=C[C@@H]1C/C=C/CCCC(=O)O` [15d-PGJ2], the negative-log Ki (pKi) in assay [1] was 5.07; in assay [2], 4.89. The “HPLC, UV and CD of purified covalent adduct; PHOME activity of adduct vs apoprot” value in assay [3] was “with the single modification of C423S and C522S mutants inhibiting the enzyme to a lesser extent”; in assay [4], “with the single modification of C423S and C522S mutants inhibiting the enzyme to a lesser extent”.

In general, pKi refers to the Ki on a negative log10 scale, so that one unit is a factor of ten. Read a high pKi as a low Ki.
